Drawing on BindingDB's records for doi:10.1021/jm9600813 (National Institute of Diabetes and Digestive and Kidney …, 1996), this text covers Ki for 14 compounds.

This assay deals with Sigma non-opioid intracellular receptor 1 (Cavia porcellus) (UniProt Q60492). Description: Displacement of [3H](+)-pentazocine from Sigma opioid receptor type 1 in guinea pig brain membrane. In general terms: In a radioligand displacement assay an active substance lowers the binding of a labelled ligand.
Chain of Sigma non-opioid intracellular receptor 1 (Cavia porcellus) (Q60492 whole entry, looked up): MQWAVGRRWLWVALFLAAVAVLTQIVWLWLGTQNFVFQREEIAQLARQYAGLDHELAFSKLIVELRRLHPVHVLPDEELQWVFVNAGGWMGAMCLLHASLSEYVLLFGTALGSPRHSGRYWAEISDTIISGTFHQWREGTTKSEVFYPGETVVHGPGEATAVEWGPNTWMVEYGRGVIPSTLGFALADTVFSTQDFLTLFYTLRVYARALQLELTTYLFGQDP
A word on the Ki: it is a dissociation constant, usually derived from enzyme kinetics or from competition with a known ligand. Lower therefore signals higher affinity. `COc1ccccc1CCN(C)CCN1CCCC1` [[2-(2-Methoxy-phenyl)-ethyl]-methyl-(2-pyrrolidin-1-yl-ethyl)-amine]: the Ki was determined as 15.7 nM.

In turn, `CN(CCN1CCCC1)C(=O)Cc1cccc([N+](=O)[O-])c1` [N-Methyl-2-(3-nitro-phenyl)-N-(2-pyrrolidin-1-yl-ethyl)-acetamide] registered a Ki of 1850 nM.

The compound `CN(CCN1CCCC1)C(=O)Cc1ccc([N+](=O)[O-])cc1` [N-Methyl-2-(4-nitro-phenyl)-N-(2-pyrrolidin-1-yl-ethyl)-acetamide] gave a Ki of 869 nM.

The compound `CN(CCc1ccc([N+](=O)[O-])cc1)CCN1CCCC1` [Methyl-[2-(4-nitro-phenyl)-ethyl]-(2-pyrrolidin-1-yl-ethyl)-amine] registered a Ki of 4.3 nM.

For the compound `CN(CCc1ccccc1[N+](=O)[O-])CCN1CCCC1` [Methyl-[2-(2-nitro-phenyl)-ethyl]-(2-pyrrolidin-1-yl-ethyl)-amine], the affinity, expressed as Ki, was 7.7 nM.

In turn, `CN(CCc1ccc(N)cc1)CCN1CCCC1` [4-{2-[Methyl-(2-pyrrolidin-1-yl-ethyl)-amino]-ethyl}-phenylamine] gave a Ki of 276 nM.

As for `COc1ccc(CCN(C)CCN2CCCC2)cc1` [[2-(4-Methoxy-phenyl)-ethyl]-methyl-(2-pyrrolidin-1-yl-ethyl)-amine], the inhibition constant (Ki) came to 30.3 nM.

`CN(CCN1CCCC1)C(=O)Cc1ccccc1[N+](=O)[O-]` [N-Methyl-2-(2-nitro-phenyl)-N-(2-pyrrolidin-1-yl-ethyl)-acetamide] gave a Ki of 736 nM.

In turn, `COc1cccc(CCN(C)CCN2CCCC2)c1` [[2-(3-Methoxy-phenyl)-ethyl]-methyl-(2-pyrrolidin-1-yl-ethyl)-amine] came in with a Ki of 23.8 nM.

With `CN(CCc1cccc(N)c1)CCN1CCCC1` [3-{2-[Methyl-(2-pyrrolidin-1-yl-ethyl)-amino]-ethyl}-phenylamine], the affinity corresponds to a Ki of 579 nM.

Consider `CN(CCc1ccccc1N)CCN1CCCC1` [2-{2-[Methyl-(2-pyrrolidin-1-yl-ethyl)-amino]-ethyl}-phenylamine], for which the Ki was found to be 291 nM.

In the case of `CN(CCc1cccc([N+](=O)[O-])c1)CCN1CCCC1` [Methyl-[2-(3-nitro-phenyl)-ethyl]-(2-pyrrolidin-1-yl-ethyl)-amine], the Ki was 6.4 nM.

As for `COc1ccc(CC(=O)N(C)CCN2CCCC2)cc1` [2-(4-Methoxy-phenyl)-N-methyl-N-(2-pyrrolidin-1-yl-ethyl)-acetamide], the Ki was determined as 2220 nM.

`COc1cccc(CC(=O)N(C)CCN2CCCC2)c1` [2-(3-Methoxy-phenyl)-N-methyl-N-(2-pyrrolidin-1-yl-ethyl)-acetamide]: the affinity corresponds to a Ki of 3100 nM.
